From US20240041754A1, “NOVEL SACCHAROMYCES CEREVISIAE STRAIN AND USE THEREOF” (LG HOUSEHOLD & HEALTH CARE LTD., priority 2020, published 2024)

Assays:
[1] = test system: Human keratinocytes (HaCaT); assay: Hyaluronic acid synthesis enhancement, Quantikine ELISA Hyaluronan; type: cell-based; conditions: 1 ppm, 72 hours, vs negative control (DMEM containing 0% serum)
Description: Human keratinocytes (HaCaT) were treated with each sample for 72 hours. Thereafter, a hyaluronic acid synthesis rate was derived by measuring hyaluronic acid using R&D systems' Quantikine ELISA Hyaluronan. The skin moisturizing ability of the sample was expressed as an increase rate (%) of hyaluronic acid synthesis, which was calculated and quantified in comparison to a negative control group (treated with DMEM containing 0% serum).
The calculation formula of the increase rate of hyaluronic acid synthesis, each sample, and the results thereof are shown in Table 6 below.
Increase rate of hyaluronic acid synthesis (%)=(Hyaluronic acid synthesis rate of Sample−Hyaluronic acid synthesis rate of Negative control)/Hyaluronic acid synthesis rate of Negative control

[2] = test system: Human dermal fibroblasts; assay: Collagen synthesis enhancement, procollagen type I C-peptide (PIP) EIA kit; type: cell-based; conditions: 10 ppb, 48 hours, vs negative control (DMEM containing 0% serum)
Description: Human dermal fibroblasts were treated with each sample for 48 hours. Thereafter, a collagen synthesis rate was measured by detecting collagen using a method of a procollagen type I C-peptide (PIP) EIA kit. The collagen synthesis efficiency of the sample was expressed as an increase rate (%) of collagen synthesis, which was calculated and quantified in comparison to a negative control group (DMEM containing 0% serum).
Increase rate of collagen synthesis (%)=(Collagen synthesis rate of Sample−Collagen synthesis rate of Negative control)/Collagen synthesis rate of Negative control

Compound	Increase rate of hyaluronic acid synthesis [1] [%]	Increase rate of collagen synthesis [2] [%]
CC1=C(/C=C/C(C)=C/C=C/C(C)=C/C(=O)O)C(C)(C)CCC1 [Retinoic acid]	13.8	–
TGF-β	–	15.2
